Article PMC7021098 (Journal of Antimicrobial Chemotherapy, 2019)
Where two headings read alike, the source gives them in different places. Marks after values point to notes of the source that are not given here.

Key:
[1] = cited from earlier work
[2] = Cabotegravir and rilpivirine concentrations in plasma and CSF by HPLC-MS/MS; type: in vivo, HIV-infected adults; conditions: for Total plasma drug / Total CSF drug / Unbound plasma drug / Total CSF/total plasma (%) / Kp: median (minimum–maximum); for Total CSF/total plasma (%) / Kp: paired samples; for Kp: human, CSF/plasma, intramuscular, Total CSF/total plasma (%)
[3] = system: WT HIV-1; conditions: cited from earlier work; for in vitro EC50 for WT HIV-1: ref 10 (cabotegravir), 37 (rilpivirine)
[4] = system: plasma proteins; conditions: cited from earlier work
[5] = Phase 1, monthly IM LA, cited from earlier work
[6] = system: P-glycoprotein; conditions: in vitro; ref 42 (cabotegravir), 43 (rilpivirine); cited from earlier work
[7] = system: breast cancer resistance protein (BCRP); conditions: in vitro; ref 42 (cabotegravir), 43 (rilpivirine); cited from earlier work
[8] = cited from earlier work; for reported CSF distribution: other NNRTIs
[9] = Q4W, n = 3, 7 ± 3 days after injection
[10] = Q8W, n = 15, 7 ± 3 days after injection

Row | SMILES | protein binding in CSF [1] | median CSF level, fold above in vitro EC50 for WT HIV-1 ([2]; Q4W group) | Total CSF/total plasma (%) ([2]; Q4W, n = 3) | median CSF level, fold above in vitro EC50 for WT HIV-1 ([2]; Q8W group) | Total CSF/total plasma (%) ([2]; Q8W, n = 13) | Kp ([2]; Q4W, n = 3) | Kp ([2]; Q8W, n = 13) | in vitro EC50 for WT HIV-1 [3] | bound to plasma proteins [4] | time to maximum plasma concentrations [5] | substrate for P-glycoprotein [6] | substrate for breast cancer resistance protein (BCRP) [7] | reported CSF distribution [8] | further results
1 | O=C(NCc1c(F)cc(F)cc1F)c1cn2c(c(O)c1=O)C(=O)N1[C@H]3CC[C@H](C3)O[C@@H]1C2 [bictegravir] | predominantly protein-bound |  |  |  |  |  |  |  |  |  |  |  |  | 
2 | C[C@H]1CO[C@@H]2Cn3cc(C(=O)NCc4ccc(F)cc4F)c(=O)c(O)c3C(=O)N12 [cabotegravir] |  | 127 fold | 0.344 (0.312–0.421) % | 106 fold | 0.304 (0.218–0.449)^c % | 0.003 | 0.0034 | 0.10 ng/mL | > 99.8% | approximately 1 week | substrate | substrate |  | Total plasma drug ([2]; Q4W (cabotegravir LA 400 mg + rilpivirine LA 600 mg IM every 4 weeks), n = 3, 7 ± 3 days after injection): 3.02 (2.37–5.10) μg/mL; Total CSF drug [2, 9]: 0.0127 (0.0082–0.0159) μg/mL; Unbound plasma drug [2, 9]: 0.0019 (0.0014–0.0698) μg/mL; Total plasma drug ([2]; Q8W (cabotegravir LA 600 mg + rilpivirine LA 900 mg IM every 8 weeks), n = 15, 7 ± 3 days after injection): 3.92 (1.30–6.41) μg/mL; Total CSF drug ([2]; Q8W, n = 13, 7 ± 3 days after injection): 0.0106 (0.0053–0.0245)^c μg/mL; Unbound plasma drug [2, 10]: 0.0047 (0.0007–0.0220) μg/mL; EC50 ([3]; read-out: EC50 for WT HIV-1 clade B): 250 pM; maximum plasma concentrations (geometric mean) ([5]; after the fourth dose of cabotegravir): 2.2 to 4.4 µg/mL
3 | C[C@@H]1CCO[C@H]2Cn3cc(C(=O)NCc4ccc(F)cc4F)c(=O)c(O)c3C(=O)N12 [dolutegravir] |  |  |  |  |  |  |  |  |  |  |  |  |  | CSF inhibitory quotient (ratio of drug concentration to EC50), median [8]: 66–90 fold; CSF-to-plasma ratio ([8]; oral administration at 50 mg once daily): 0.41%
4 | O=C1Nc2ccc(Cl)cc2[C@@](C#CC2CC2)(C(F)(F)F)O1 [efavirenz] |  |  |  |  |  |  |  |  |  |  |  |  | 0.5% | 
5 | Cc1cc(C#N)cc(C)c1Oc1nc(Nc2ccc(C#N)cc2)nc(N)c1Br [etravirine] | predominantly protein-bound |  |  |  |  |  |  |  |  |  |  |  | 1% | 
6 | Cc1cc(/C=C/C#N)cc(C)c1Nc1ccnc(Nc2ccc(C#N)cc2)n1 [rilpivirine] |  | 6 fold | 1.32% | 7 fold | 1.07% | 0.0107 | 0.0132 | 0.27 ng/mL | 99.7% | approximately 1 week | not a substrate | not a substrate |  | Total plasma drug [2, 9]: 134 (83.0–187) ng/mL; Total CSF drug ([2]; Q4W, n = 3): 1.67 (1.40–2.47) ng/mL; Total CSF/total plasma (%) ([2]; Q4W, n = 3, listed as Rilpivirine): 1.32 (1.25–1.69) %; Total CSF/total plasma (%) ([2]; Q8W, n = 13, listed as Rilpivirine): 1.07 (NQ to 1.52)^c^, d %; Total plasma drug [2, 10]: 192 (91.7–378) ng/mL; plasma concentration in the participant with non-quantifiable CSF level ([2]; single participant): 117 ng/mL; CSF concentration in the one participant with non-quantifiable level ([2]; single participant, Q8W, not quantifiable): under 1 ng/mL; maximum plasma concentrations (geometric mean) ([5]; after the second dose of rilpivirine): 0.126 to 0.168 µg/mL; CSF-to-plasma ratio ([8]; 25 mg administered orally for 60 days): 1.4%
